Reference: patent US8435978B2, “Substituted sulfonamide compounds” (Gruenenthal GmbH, priority 2006, dated 2013)

Tests used:
B1R receptor of the rat = target: T1, B1R receptor of the rat (Rattus norvegicus, UniProt P97583); experiment: Functional study on the bradykinin receptor 1 (B1R), FLIPR Ca2+ assay, rB1R cells; type: cell-based; conditions: agonist Des-Arg9-bradykinin 100 nM, % inhibition compared with the maximum achievable inhibition; for B1R Antagonism, rat [10 μM] % Inhibition: test substance 10 μM, rB1R CHO K1 cells; for inhibition at 10 µM: CHO-K1, test substance 10 μM, read-out: B1R Antagonism, rat [10 μM] % Inhibition
T1 construct: host or cells: CHO K1 cells (Chinese hamster ovary), stably transfected
T1 sequence (P97583 1-337): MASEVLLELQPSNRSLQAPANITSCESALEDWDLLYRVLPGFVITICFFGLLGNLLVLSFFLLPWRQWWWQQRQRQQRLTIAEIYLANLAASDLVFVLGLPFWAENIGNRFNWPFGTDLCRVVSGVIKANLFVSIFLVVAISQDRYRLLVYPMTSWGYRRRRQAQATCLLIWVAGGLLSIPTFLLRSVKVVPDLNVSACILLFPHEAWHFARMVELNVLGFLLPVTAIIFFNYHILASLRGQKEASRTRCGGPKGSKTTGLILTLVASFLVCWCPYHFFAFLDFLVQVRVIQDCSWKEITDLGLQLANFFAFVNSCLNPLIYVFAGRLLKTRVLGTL
Description: (§1) The agonistic or antagonistic action of substances can be quantified on the bradykinin receptor 1 (B1R) of the species human and rat with ectopically expressing cell lines (CHO K1 cells) and with the aid of a Ca^2+-sensitive dye (Fluo-4) using a fluorescent imaging plate reader (FLIPR). The indication in % activation is based on the Ca^2+ signal after addition of Lys-Des-Arg^9-bradykinin (0.5 nM) or Des-Arg^9-bradykinin (100 nM). Antagonists result in a suppression of the Ca^2+ influx following administration of the agonist. The % inhibition in comparison with the maximum achievable inhibition is indicated.
(§2) The agonistic or antagonistic action of substances can be determined on the bradykinin receptor 1 (B1R) of the species human and rat using the following assay. According to this assay, the Ca^2+ influx through the channel is quantified with the aid of a Ca^2+-sensitive dye (type Fluo-4, Molecular Probes Europe BV, Leiden, Netherlands) using a Fluorescent Imaging Plate Reader (FLIPR, Molecular Devices, Sunnyvale, USA).
(§3) Chinese hamster ovary cells (CHO K1 cells) which have been stably transfected with the human B1R gene (hB1R cells, Euroscreen s.a., Gosselies, Belgium) or with the B1R gene of the rat (rB1R cells, Axxam, Milan, Italy) are used. For functional studies, the cells are plated out on black 96-well plates having a clear base (BD Biosciences, Heidelberg, Germany) in a density of 20,000-25,000 cells/well. The cells are incubated overnight at 37° C. and with 5% CO2 in culture medium (hB1R cells: Nutrient Mixture Ham's F12, Gibco Invitrogen GmbH, Karlsruhe, Germany; rB1R cells: D-MEM/F12, Gibco Invitrogen GmbH, Karlsruhe, Germany), with 10 vol. % FBS (fetal bovine serum, Gibco Invitrogen GmbH, Karlsruhe, Germany). On the following day, the cells are loaded for 60 minutes at 37° C. with 2.13 μM Fluo-4 (Molecular Probes Europe BV, Leiden, Netherlands) in HBSS buffer (Hank's buffered saline solution, Gibco Invitrogen GmbH, Karlsruhe, Germany) […] (Sigma-Aldrich, Taufkirchen, Germany) and 10 mM HEPES (Sigma-Aldrich, Taufkirchen, Germany). The plates are then washed twice with HBSS buffer, and HBSS buffer additionally containing 0.1% BSA (bovine serum albumin; Sigma-Aldrich, Taufkirchen, Germany), 5.6 mM glucose and 0.05% gelatin (Merck KGaA, Darmstadt, Germany) is added to the plates. After incubation for a further 20 minutes at room temperature, the plates are inserted into the FLIPR for Ca^2+ measurement. The Ca^2+-dependent fluorescence is measured before and after the addition of substances (λex=488 nm, λem=540 nm). Quantification is carried out by measuring the highest fluorescence intensity (FC, fluorescence counts) over time.
(§4) The FLIPR protocol consists of 2 substance additions. Test substances (10 μM) are first pipetted onto the cells and the Ca^2+ influx is compared with the control (hB1R: Lys-Des-Arg^9-bradykinin 0.5 nM; rB1R: Des-Arg^9-bradykinin 100 nM). This gives the activation in %, based on the Ca^2+ signal after addition of Lys-Des-Arg^9-bradykinin (0.5 nM) or Des-Arg^9-bradykinin (100 nM).
(§5) After 10 minutes' incubation, 0.5 nM Lys-Des-Arg^9-bradykinin (hB1R) or 100 nM Des-Arg^9-bradykinin (rB1R) are applied, and the influx of Ca^2+ is likewise determined. Antagonists lead to suppression of the Ca^2+ influx. The % inhibition compared with the maximum achievable inhibition is calculated.

human B1R receptor = target: T2, human B1R receptor (Homo sapiens, UniProt P46663); experiment: Functional study on the bradykinin receptor 1 (B1R), FLIPR Ca2+ assay, hB1R cells; type: cell-based; conditions: agonist Lys-Des-Arg9-bradykinin 0.5 nM, % inhibition compared with the maximum achievable inhibition; for B1R Antagonism, human [10 μM] % Inhibition: test substance 10 μM, hB1R CHO K1 cells; for inhibition at 10 µM: CHO-K1, test substance 10 μM, read-out: B1R Antagonism, human [10 μM] % Inhibition
T2 construct: host or cells: CHO K1 cells (Chinese hamster ovary), stably transfected
T2 sequence (P46663 1-353): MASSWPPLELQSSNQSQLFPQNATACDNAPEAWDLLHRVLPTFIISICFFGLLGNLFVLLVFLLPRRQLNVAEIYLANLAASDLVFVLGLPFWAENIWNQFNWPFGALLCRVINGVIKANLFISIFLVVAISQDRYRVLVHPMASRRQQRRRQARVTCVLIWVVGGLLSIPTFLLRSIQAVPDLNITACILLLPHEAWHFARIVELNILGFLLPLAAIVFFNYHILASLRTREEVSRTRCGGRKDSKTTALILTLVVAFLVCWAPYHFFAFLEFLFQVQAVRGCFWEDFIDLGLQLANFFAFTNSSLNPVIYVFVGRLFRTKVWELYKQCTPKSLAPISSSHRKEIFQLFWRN
Description: as §1, §2, §3, §4, §5

## CN(C)C1CCN(C(=O)COCCC2CCCCN2S(=O)(=O)c2cccc3ccccc23)C1 (stereo not shown) [Example 66, 1-(3-dimethylamino-pyrrolidin-1-yl)-2-[1-(naphthyl-1-sulfonyl)-piperidin-2-ylethoxy]-ethanone]
B1R receptor of the rat
  B1R Antagonism, rat [10 μM] % Inhibition: 38.64%
Human B1R receptor
  B1R Antagonism, human [10 μM] % Inhibition: 55.38%

## COc1ccc(N2CCN(C(=O)COCC3CCCN3S(=O)(=O)c3c(C)cc(OC)cc3C)CC2)cc1 (stereo not shown) [Example 308, 2-((1-(4-methoxy-2,6-dimethylphenylsulfonyl)pyrrolidin-2-yl)methoxy)-1-(4-(4-methoxyphenyl)piperazin-1-yl)ethanone]
B1R receptor of the rat
  inhibition at 10 µM: 101%
Human B1R receptor
  inhibition at 10 µM: 105%

## COc1cc(C)c(S(=O)(=O)N2CCCC2COCC(=O)NCc2ccc(N(C)C)cc2)c(C)c1 (stereo not shown) [Example 576, N-(4-(dimethylamino)benzyl)-2-((1-(4-methoxy-2,6-dimethylphenylsulfonyl)pyrrolidin-2-yl)methoxy)acetamide]
B1R receptor of the rat
  inhibition at 10 µM: 107%
Human B1R receptor
  inhibition at 10 µM: 1.85%

## COc1cc(C)c(S(=O)(=O)N2CCCCC2COCC(=O)N2CCN(Cc3ccc(Cl)c(Cl)c3)CC2)c(C)c1 (stereo not shown) [Example 381, 1-(4-(3,4-dichlorobenzyl)piperazin-1-yl)-2-((1-(4-methoxy-2,6-dimethylphenylsulfonyl)piperidin-2-yl)methoxy)ethanone]
B1R receptor of the rat
  inhibition at 10 µM: 100%
Human B1R receptor
  inhibition at 10 µM: 77.9%

## N-(4-(2-(1H-benzo[d]imidazol-2-yl)ethyl)phenyl)-2-((1-(4-methoxy-2,6-dimethylphenylsulfonyl)pyrrolidin-2-yl)methoxy)acetamide [Example 472]
B1R receptor of the rat
  B1R Antagonism, rat [10 μM] % Inhibition: 101.17%
Human B1R receptor
  B1R Antagonism, human [10 μM] % Inhibition: 92.06%

## COc1cc(C)c(S(=O)(=O)N2CCCCC2COCC(=O)N2CCN(C3CCC(C)CC3)CC2)c(C)c1 (stereo not shown) [Example 105, 2-((1-(4-methoxy-2,6-dimethylphenylsulfonyl)piperidin-2-yl)methoxy)-1-(4-(4-methylcyclohexyl)piperazin-1-yl)ethanone]
B1R receptor of the rat
  inhibition at 10 µM: 100%
Human B1R receptor
  inhibition at 10 µM: 106%

## COc1cc(C)c(S(=O)(=O)N2CCCCC2COCC(=O)N2CCN(Cc3nc(-c4ccccc4)[nH]c3Cl)CC2)c(C)c1 (stereo not shown) [Example 197, 1-(4-((5-chloro-2-phenyl-1H-imidazol-4-yl)methyl)piperazin-1-yl)-2-((1-(4-methoxy-2,6-dimethylphenylsulfonyl)piperidin-2-yl)methoxy)ethanone]
B1R receptor of the rat
  inhibition at 10 µM: 100%
Human B1R receptor
  inhibition at 10 µM: 104%

## COc1cc(C)c(S(=O)(=O)N2CCCCC2COCC(=O)NCc2cccnc2)c(C)c1 (stereo not shown) [Example 345, 2-((1-(4-methoxy-2,6-dimethylphenylsulfonyl)piperidin-2-yl)methoxy)-N-(pyridin-3-ylmethyl)acetamide]
B1R receptor of the rat
  inhibition at 10 µM: 95.9%
Human B1R receptor
  inhibition at 10 µM: 22.3%

## COc1cccc(N2CCN(C(=O)COCC3CCCCN3S(=O)(=O)c3c(Cl)cccc3Cl)CC2)c1 (stereo not shown) [Example 317, 2-((1-(2,6-dichlorophenylsulfonyl)piperidin-2-yl)methoxy)-1-(4-(3-methoxyphenyl)piperazin-1-yl)ethanone]
B1R receptor of the rat
  inhibition at 10 µM: 100%
Human B1R receptor
  inhibition at 10 µM: 92.2%

## Cc1ccc(C)n1CCN1CCN(C(=O)COCC2CCCN2S(=O)(=O)c2c(Cl)cc(Cl)cc2Cl)CC1 (stereo not shown) [Example 332, 1-(4-(2-(2,5-dimethyl-1H-pyrrol-1-yl)ethyl)piperazin-1-yl)-2-((1-(2,4,6-trichlorophenylsulfonyl)pyrrolidin-2-yl)methoxy)ethanone]
B1R receptor of the rat
  inhibition at 10 µM: 101%
Human B1R receptor
  inhibition at 10 µM: 105%

## COc1cc(C)c(S(=O)(=O)N2CCCC2COCC(=O)N2CCC(CCN3CCCC3)CC2)c(C)c1 (stereo not shown) [Example 95, 2-((1-(4-methoxy-2,6-dimethylphenylsulfonyl)pyrrolidin-2-yl)methoxy)-1-(4-(2-(pyrrolidin-1-yl)ethyl)piperidin-1-yl)ethanone]
B1R receptor of the rat
  inhibition at 10 µM: 101%
Human B1R receptor
  inhibition at 10 µM: 107%

## COc1cc(C)c(S(=O)(=O)N2CC[C@H]2COCC(=O)N2CCN(C3CCN(C)CC3)CC2)c(C)c1 [Example 135, (S)-2-((1-(4-methoxy-2,6-dimethylphenylsulfonyl)azetidin-2-yl)methoxy)-1-(4-(1-methylpiperidin-4-yl)piperazin-1-yl)ethanone]
B1R receptor of the rat
  inhibition at 10 µM: 98.3%
Human B1R receptor
  inhibition at 10 µM: 103%

## O=C(COCC1CCCCN1S(=O)(=O)c1c(Cl)cccc1Cl)N1CCC(c2ccncc2)C1 (stereo not shown) [Example 282, 2-((1-(2,6-dichlorophenylsulfonyl)piperidin-2-yl)methoxy)-1-(3-(pyridin-4-yl)pyrrolidin-1-yl)ethanone]
B1R receptor of the rat
  inhibition at 10 µM: 86%
Human B1R receptor
  inhibition at 10 µM: 103%

## CN1CCN(C2CCN(C(=O)COCC3CCCCN3S(=O)(=O)c3csc4ccccc34)CC2)CC1 (stereo not shown) [Example 572, 2-((1-(benzo[b]thiophen-3-ylsulfonyl)piperidin-2-yl)methoxy)-1-(4-(4-methylpiperazin-1-yl)piperidin-1-yl)ethanone]
B1R receptor of the rat
  inhibition at 10 µM: 99%

## CN(C(=O)COCC1CCCCN1S(=O)(=O)c1c(Cl)cc(C(F)(F)F)cc1Cl)[C@H]1CCN(Cc2ccccc2)C1 (stereo partly drawn) [Example 574, N—((S)-1-benzylpyrrolidin-3-yl)-2-((1-(2,6-dichloro-4-(trifluoromethyl)phenylsulfonyl)piperidin-2-yl)methoxy)-N-methylacetamide]
Human B1R receptor
  inhibition at 10 µM: 90%

## COc1ccc(S(=O)(=O)N2CCCCC2CCOCC(=O)N2CCN(CCc3ccccc3)CC2)cc1 (stereo not shown) [Example 91, 2-(2-(1-(4-methoxyphenylsulfonyl)piperidin-2-yl)ethoxy)-1-(4-phenethylpiperazin-1-yl)ethanone]
Human B1R receptor
  inhibition at 10 µM: 48.8%

## CN1CCC(CN2CCN(C(=O)COCC3CCCCN3S(=O)(=O)c3csc4ccccc34)CC2)CC1 (stereo not shown) [Example 573, 2-((1-(benzo[b]thiophen-3-ylsulfonyl)piperidin-2-yl)methoxy)-1-(4-((1-methylpiperidin-4-yl)methyl)piperazin-1-yl)ethanone]
B1R receptor of the rat
  inhibition at 10 µM: 101%

## CN(C(=O)COCC1CCCCN1S(=O)(=O)c1ccccc1C(F)(F)F)[C@H]1CCN(Cc2ccccc2)C1 (stereo partly drawn) [Example 218, N—((S)-1-benzylpyrrolidin-3-yl)-N-methyl-2-((1-(2-(trifluoromethyl)phenylsulfonyl)piperidin-2-yl)methoxy)acetamide]
Human B1R receptor
  inhibition at 10 µM: 100%
